Values after ≈ are worked out from the molar mass of the structure shown. Residues, ends and D or L forms follow the SMILES beside them. *: point of attachment. Piperidide = C1CCN(*)CC1; PhAc = O=C(Cc1ccccc1)* Where only a bound is given, the exact number is not on record here.

For the data set the following is noted: buffer; pH 7.4; 200.0 µM.
`S=C(NCC1CCCO1)N1CCc2ccccc2C1` (configuration not stated) gave a solubility (kinetic) of more than 41.5 µg/mL. `Cc1ccc(C(=O)Nc2ccc3ccccc3n2)cc1` yielded a kinetic solubility of 2.3 µg/mL (≈ 8.77 µM). In the case of `Cl.O=C(O)Cc1cnc[nH]1`, the kinetic solubility is more than 24.4 µg/mL. As to `CN(c1ccccc1)c1nc(N)c([N+](=O)[O-])c(N2CCCCCC2)n1`, the solubility (kinetic) is 2.6 µg/mL (≈ 7.59 µM). `O=S(=O)(c1ccc(Cl)nc1)N1CCC(Cc2ccccc2)CC1`: the kinetic solubility was 2.5 µg/mL (≈ 7.13 µM). Under `N#Cc1c(N)nc2c(c1N)CC(C(F)(F)F)O2` (configuration not stated) stands more than 36.6 µg/mL; under `CCn1c(=O)c2cc(C(=O)NC(C)C)sc2c2ccccc21`, 1 µg/mL (≈ 3.18 µM); under `COc1ccc(NC(=O)c2cc([N+](=O)[O-])ccc2O)cc1`, more than 43.2 µg/mL. `CCOC(=O)Cn1cnc2scc(-c3ccccc3)c2c1=O` showed a solubility (kinetic) of more than 47.2 µg/mL.

Take `CC(=O)NC(Cc1c[nH]c2ccccc12)C(=O)NCCc1ccccn1` (configuration not stated): the solubility (kinetic) was more than 52.6 µg/mL.

As for `O=CN1CCN(C(=O)c2ccc(Br)o2)CC1`, the solubility (kinetic) is more than 43.1 µg/mL. As for `O=c1nc(SCc2c(F)cccc2Cl)nc(-c2ccccc2)[nH]1`, the solubility (kinetic) turned out to be 4.1 µg/mL (≈ 11.8 µM). Under `CCOC(=O)c1c(NC(=O)COC(=O)c2cnccn2)sc(C)c1C` stands 16.8 µg/mL (≈ 46.2 µM). Under `COc1ccc(OC)c(CN2CCCCCC2)c1.O=C(O)C(=O)O` stands 48.2 µg/mL. For `O=c1[nH]cnc2c1c(-c1ccccc1)cn2-c1ccccc1`, the kinetic solubility was less than 0.2 µg/mL.

For `Cc1ccc(OCc2nc3ccccc3n2C)cc1`, the solubility (kinetic) stood at 5.7 µg/mL (≈ 22.6 µM). For `CC(C)CC(C(=O)N1CCOCC1)N1Cc2ccccc2C1=O` (configuration not stated), the kinetic solubility was determined as 47.3 µg/mL (≈ 149 µM).

The compound `O=C(CNC(=O)Cc1ccccc1)NCC(=O)N1CCCCC1` (PhAc-Gly-Gly-Piperidide) came in with a kinetic solubility of more than 47.6 µg/mL. `S=C1NCN(Cc2ccco2)CN1Cc1ccco1` registered a solubility (kinetic) of 40.3 µg/mL (≈ 145 µM).

Compound `CCOC(=O)c1sc(NC(=O)c2c(CC)noc2C)nc1C` gave a kinetic solubility of more than 48.5 µg/mL. `CN(Cc1ccccc1)S(=O)(=O)c1ccc(N2CCOCC2)nc1` displayed a kinetic solubility of 2.5 µg/mL (≈ 7.2 µM). In the case of `O=C(NC1CCS(=O)(=O)C1)C1C2CC3CC(C2)CC1C3` (configuration not stated) it was more than 44.6 µg/mL; in that of `COc1ccccc1N/C(N)=N/c1nc(C)cc(C)n1`, 38.2 µg/mL (≈ 141 µM); in that of `COC(=O)c1[nH]c2c(c1C(=O)OC)CCc1ccccc1-2`, 19.4 µg/mL (≈ 68 µM). In turn, `CC1CC(C)CN(S(=O)(=O)c2ccc(Cl)cc2)C1` (configuration not stated) gave a kinetic solubility of 9.3 µg/mL (≈ 32.3 µM).

Turning to `CCC(C)Nc1nc(N)c([N+](=O)[O-])c(N2CCCCCC2)n1` (configuration not stated), the solubility (kinetic) came out at 29.1 µg/mL (≈ 94.4 µM). In the case of `CCOC(=O)c1cc(NC(=O)N(C)C2CCCCC2)c(C)nc1C` it was more than 50 µg/mL. `CCCc1cnc(N2CCN(C(=O)c3c(-c4ccccc4)noc3C)CC2)nc1` registered a kinetic solubility of 40.7 µg/mL (≈ 104 µM).

With `CN(Cc1ccccc1)c1nc(N)nc(Cl)c1C=O`, the solubility (kinetic) was found to be 26.4 µg/mL (≈ 95.4 µM). In the case of `CCOc1ccc(C2=CSC3=NCCN23)cc1Cl` it was 25 µg/mL (≈ 89 µM); in that of `CC(=O)c1ccc(NC(=O)CN2C(=O)NC3(CCc4ccccc43)C2=O)cc1` (configuration not stated), more than 56.6 µg/mL. Turning to `O=c1cc(NCCc2ccccc2)c2ccccc2o1`, the kinetic solubility is 1.1 µg/mL (≈ 4.15 µM). For `CCC(=O)c1ccc2c(c1)N(CCCN(C)C)c1ccccc1S2.Cl`, the kinetic solubility was more than 56.5 µg/mL. In the case of `COc1cc(/C=C/C(=O)OCC(=O)NCCC2=CCCCC2)cc(OC)c1OC` it was 33.3 µg/mL (≈ 82.5 µM); in that of `O=C(COC(=O)c1ccc2ccccc2c1O)NCc1ccccc1`, 3 µg/mL (≈ 8.95 µM); in that of `CC(OC(=O)C1CCCCC1)C(=O)Nc1cccc(Cl)c1` (configuration not stated), 22.3 µg/mL (≈ 72 µM). Compound `COc1cccc(C(=O)NCc2ccc3c(c2)OCO3)c1OC` yielded a solubility (kinetic) of more than 47.3 µg/mL.

Compound `Cc1ccccc1OCC(=O)OCC(=O)c1ccc[nH]1` had a kinetic solubility of more than 41 µg/mL. `O=S(=O)(NC1CCCCC1N1CCCCC1)c1ccccc1` (configuration not stated): the kinetic solubility was more than 48.4 µg/mL.

On to `COc1ccc(C(=O)Nc2ccccc2N2CCCC2)cc1`, for which the solubility (kinetic) came out at 25.6 µg/mL (≈ 86.4 µM). Under `O=C1CSC(c2ccc([N+](=O)[O-])cc2)N1c1ccccc1` (configuration not stated) stands 42 µg/mL (≈ 140 µM). As to `COc1ccc(CCNC(=O)c2ccnc(C(C)(C)C)c2)cc1OC`, the solubility (kinetic) was more than 51.4 µg/mL. `NC(=S)N(c1ccccc1)c1ccccc1` showed a solubility (kinetic) of more than 34.2 µg/mL.

For the compound `Cc1ccc2c(CC(=O)NNC(=O)c3ccncc3)coc2c1`, the kinetic solubility was more than 46.4 µg/mL. Under `COc1ccc(NC(=S)N2CCC(Cc3ccccc3)CC2)cc1` stands 4.7 µg/mL (≈ 13.8 µM). `NC(=O)C1CC(=O)N(CCc2ccc(F)cc2)C1` (configuration not stated) returned a kinetic solubility of more than 37.5 µg/mL. For `CC(C)N=c1cc2n(-c3ccc(Cl)cc3)c3ccccc3nc-2cc1Nc1ccc(Cl)cc1`, the solubility (kinetic) turned out to be 0.3 µg/mL (≈ 0.634 µM). Regarding `CCOC(=O)c1c(/N=C/c2ccc(C)cc2O)sc2c1CCN(C)C2`, the kinetic solubility is 11.6 µg/mL (≈ 32.4 µM). As for `O=C(Nc1ccccc1O)N1c2ccccc2Sc2ccccc21`, the solubility (kinetic) was less than 0.4 µg/mL. Under `NC(=O)C1CCN(CCS(=O)(=O)c2ccc(Cl)cc2)CC1` stands more than 49.6 µg/mL; under `Cc1onc(-c2ccccc2Cl)c1C(=O)NCc1ccccc1F`, more than 51.7 µg/mL; under `O=C(O)c1ccc2c(=O)n3c(nc2c1)/C(=C/c1cccc(O)c1)CC3`, more than 50.1 µg/mL.

One may read the solubility (kinetic) as the concentration staying in solution when a stock, usually in DMSO, is diluted into the medium.

The values above are taken from PubChem BioAssay AID1996.
